Measurements from patent US9834542B2, “LXR modulators” (BRISTOL-MYERS SQUIBB COMPANY, priority 2013, dated 2017).
pEC50: −log10 of the molar value.

Target: T1, LXRβ (Homo sapiens, UniProt P55055)
T1 construct: Co-transfection expression plasmids, comprising full-length LXRα (pCMX-h LXRα[…] or LXRβ (pCMX-hLXRβ)); expressed in transfected cells; host or cells: CV-1 African Green Monkey Kidney Cells
T1 sequence (P55055 1-460): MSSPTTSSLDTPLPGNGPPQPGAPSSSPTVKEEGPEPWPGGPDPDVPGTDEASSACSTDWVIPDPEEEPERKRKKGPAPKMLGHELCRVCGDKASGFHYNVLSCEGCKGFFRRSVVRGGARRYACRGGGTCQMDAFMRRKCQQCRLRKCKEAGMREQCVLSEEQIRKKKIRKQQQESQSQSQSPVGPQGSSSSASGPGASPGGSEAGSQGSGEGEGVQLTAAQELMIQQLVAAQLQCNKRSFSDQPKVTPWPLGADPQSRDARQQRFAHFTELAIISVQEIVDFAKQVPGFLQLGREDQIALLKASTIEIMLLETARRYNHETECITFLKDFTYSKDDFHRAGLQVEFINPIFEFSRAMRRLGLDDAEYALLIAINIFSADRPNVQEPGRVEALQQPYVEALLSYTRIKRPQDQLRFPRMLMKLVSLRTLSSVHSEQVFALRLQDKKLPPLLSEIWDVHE
T1 sequence (P19793 1-462 partner): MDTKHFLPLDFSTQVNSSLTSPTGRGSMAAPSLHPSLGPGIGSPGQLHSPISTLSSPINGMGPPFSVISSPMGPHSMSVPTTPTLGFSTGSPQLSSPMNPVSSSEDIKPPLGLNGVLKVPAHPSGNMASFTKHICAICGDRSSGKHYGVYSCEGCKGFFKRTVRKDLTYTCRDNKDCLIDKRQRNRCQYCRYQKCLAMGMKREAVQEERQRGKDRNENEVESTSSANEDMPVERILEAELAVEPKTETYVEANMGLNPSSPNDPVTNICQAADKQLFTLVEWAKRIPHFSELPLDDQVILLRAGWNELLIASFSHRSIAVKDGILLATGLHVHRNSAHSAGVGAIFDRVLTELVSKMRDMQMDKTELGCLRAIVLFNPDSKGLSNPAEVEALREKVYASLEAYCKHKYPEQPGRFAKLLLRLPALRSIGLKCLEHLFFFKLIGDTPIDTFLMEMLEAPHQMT
Assay: Co-transfection assay (LXRE luciferase reporter), LXRβ
Type: cell-based
Design: % Efficacy: concentration or dose not given beside the values
Settings: for pEC50: CV-1 cells transfected with pCMX-hLXRβ and LXREx1-Tk-Luciferase, 20 hours incubation; for Emax: read-out: % Efficacy
Summary of the method: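 Luciferase output from an LXRE-Tk reporter measured after 20 h, 37 °C compound exposure of transiently transfected CV-1 cells expressing human LXRβ with endogenous RXR. EC50 fitted from 11-point half-log dose responses (mean of ≥2 runs); % efficacy versus maximal response of the reference agonist.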

[1] = LXRβ co-transfection, relative to high control 1-(2,4-difluorobenzyl)-2-oxo-6-(4-phenoxyphenyl)-4-(trifluoromethyl)-1,2-dihydropyridine-3-carbonitrile

Row | Compound | pEC50 | Emax [1] [%] | % Efficacy [1] [%]
1 | Cc1nc(-c2cc(-c3cccc(S(C)(=O)=O)c3)ccc2-n2cc(C(F)(F)F)nc2C)c(-c2cc(Cl)ccn2)o1 [Example 434, 5-(4-chloropyridin-2-yl)-2-methyl-4-(4-(2-methyl-4-(trifluoromethyl)-1H-imidazol-1-yl)-3′-(methylsulfonyl)biphenyl-3-yl)oxazole] | 6.34 | 65 | 
2 | Cc1nc(-c2cc(-c3ccc(C)c(S(C)(=O)=O)c3)ccc2-n2cc(C(F)(F)F)nc2C)c(-c2ccc(OC(F)F)c(F)c2)o1 [Example 435, 5-(4-(difluoromethoxy)-3-fluorophenyl)-2-methyl-4-(4′-methyl-4-(2-methyl-4-(trifluoromethyl)-1H-imidazol-1-yl)-3′-(methylsulfonyl)biphenyl-3-yl)oxazole] | 7.16 | 87 | 
3 | Cc1nc(-c2cc(-c3cccc(S(C)(=O)=O)c3)ccc2-n2cc(C(F)(F)F)nc2C)c(-c2ccc3ccccc3c2)o1 [Example 436, 2-methyl-4-(4-(2-methyl-4-(trifluoromethyl)-1H-imidazol-1-yl)-3′-(methylsulfonyl)biphenyl-3-yl)-5-(naphthalen-2-yl)oxazole] | 7.12 | 77 | 
4 | Cc1nc(-c2cc(-c3cc(F)c(CO)c(S(C)(=O)=O)c3)ccc2-n2cc(C(F)(F)F)nc2C)c(-c2ccc3ccccc3c2)o1 [Example 437, (3-fluoro-4′-(2-methyl-4-(trifluoromethyl)-1H-imidazol-1-yl)-3′-(2-methyl-5-(naphthalen-2-yl)oxazol-4-yl)-5-(methylsulfonyl)biphenyl-4-yl)methanol] | 7.47 | 76 | 
5 | Cc1nc(-c2cc(-c3cccc(C4(C(N)=O)CC4)c3)ccc2-n2cc(C(F)(F)F)nc2C)c(-c2ccc(OC(F)F)c(F)c2)o1 [Example 438, 1-(3′-(5-(4-(difluoromethoxy)-3-fluorophenyl)-2-methyloxazol-4-yl)-4′-(2-methyl-4-(trifluoromethyl)-1H-imidazol-1-yl)biphenyl-3-yl)cyclopropanecarboxamide] | 5.86 | 65 | 
6 | COc1ncc(-c2oc(C)nc2-c2cc(-c3cccc(S(C)(=O)=O)c3)ccc2-n2cc(C(F)(F)F)nc2C)cc1F [Example 439, 5-(5-fluoro-6-methoxypyridin-3-yl)-2-methyl-4-(4-(2-methyl-4-(trifluoromethyl)-1H-imidazol-1-yl)-3′-(methylsulfonyl)biphenyl-3-yl)oxazole] | 6.39 | 80 | 
7 | COc1ncc(-c2oc(C)nc2-c2cc(-c3cc(F)c(CO)c(S(C)(=O)=O)c3)ccc2-n2cc(C(F)(F)F)nc2C)cc1F [Example 440, (3-fluoro-3′-(5-(5-fluoro-6-methoxypyridin-3-yl)-2-methyloxazol-4-yl)-4′-(2-methyl-4-(trifluoromethyl)-1H-imidazol-1-yl)-5-(methylsulfonyl)biphenyl-4-yl)methanol] | 6.67 | 75 | 
8 | Cc1nc(-c2cc(-c3cccc(S(C)(=O)=O)c3)ccc2-n2cc(C(F)(F)F)nc2C)c(-c2cccc(Cl)n2)o1 [Example 441, 5-(6-chloropyridin-2-yl)-2-methyl-4-(4-(2-methyl-4-(trifluoromethyl)-1H-imidazol-1-yl)-3′-(methylsulfonyl)biphenyl-3-yl)oxazole] | 5.88 | 38 | 
9 | Cc1nc(-c2cc(-c3cccc(C(=O)N(C)C)c3)ccc2-n2cc(C(F)(F)F)nc2C)c(-c2ccc(OC(F)F)c(F)c2)o1 [Example 442, 3′-(5-(4-(difluoromethoxy)-3-fluorophenyl)-2-methyloxazol-4-yl)-N,N-dimethyl-4′-(2-methyl-4-(trifluoromethyl)-1H-imidazol-1-yl)biphenyl-3-carboxamide] | 6.14 | 58 | 
10 | Cc1nc(-c2cc(-c3cccc(S(C)(=O)=O)c3)ccc2-n2cc(C(F)(F)F)nc2C)c(-c2ccc3c(c2)OCCO3)o1 [Example 443, 5-(2,3-dihydrobenzo[b][1,4]dioxin-6-yl)-2-methyl-4-(4-(2-methyl-4-(trifluoromethyl)-1H-imidazol-1-yl)-3′-(methylsulfonyl)biphenyl-3-yl)oxazole] | 6.63 | 75 | 
11 | Cc1nc(-c2cc(-c3cc(F)c(CO)c(S(C)(=O)=O)c3)ccc2-n2cc(C(F)(F)F)nc2C)c(-c2ccc3c(c2)OCCO3)o1 [Example 444, (3′-(5-(2,3-dihydrobenzo[b][1,4]dioxin-6-yl)-2-methyloxazol-4-yl)-3-fluoro-4′-(2-methyl-4-(trifluoromethyl)-1H-imidazol-1-yl)-5-(methylsulfonyl)biphenyl-4-yl)methanol] | 6.90 | 74 | 
12 | Cc1nc(-c2cc(-c3ccc(C)c(S(C)(=O)=O)c3)ccc2-n2cc(C(F)(F)F)nc2C)c(-c2ccc3c(c2)OC(F)(F)O3)o1 [Example 445, 5-(2,2-difluorobenzo[d][1,3]dioxol-5-yl)-2-methyl-4-(4′-methyl-4-(2-methyl-4-(trifluoromethyl)-1H-imidazol-1-yl)-3′-(methylsulfonyl)biphenyl-3-yl)oxazole] | 7.44 | 69 | 
13 | Cc1nc(-c2cc(-c3cccc(C4(C(N)=O)CC4)c3)ccc2-n2cc(C(F)(F)F)nc2C)c(-c2ccc3c(c2)OC(F)(F)O3)o1 [Example 446, 1-(3′-(5-(2,2-difluorobenzo[d][1,3]dioxol-5-yl)-methyloxazol-4-yl)-4′-(2-methyl-4-(trifluoromethyl)-1H-imidazol-1-yl)biphenyl-3-yl)cyclopropanecarboxamide] | 6.08 | 51 | 

Next, values leading:

Row | pEC50 | Emax [1] [%] | % Efficacy [1] [%] | Compound
14 | 6.57 | 64 |  | Cc1nc(-c2cc(-c3cccc(S(C)(=O)=O)c3)ccc2-n2cc(C(F)(F)F)nc2C)c(-c2cc(F)cc(F)c2)o1 [Example 447]
15 | 7.02 | 58 |  | Cc1nc(-c2cc(-c3cc(F)c(CO)c(S(C)(=O)=O)c3)ccc2-n2cc(C(F)(F)F)nc2C)c(-c2cc(F)cc(F)c2)o1 [Example 448, (3′-(5-(3,5-difluorophenyl)-2-methyloxazol-4-yl)-3-fluoro-4′-(2-methyl-4-(trifluoromethyl)-1H-imidazol-1-yl)-5-(methylsulfonyl)biphenyl-4-yl)methanol]
16 | 6.74 | 57 |  | Cc1nc(-c2cc(-c3cccc(S(C)(=O)=O)c3)ccc2-n2cc(C(F)(F)F)nc2C)c(-c2cc(F)cc(Cl)c2)o1 [Example 449, 5-(3-chloro-5-fluorophenyl)-2-methyl-4-(4-(2-methyl-4-(trifluoromethyl)-1H-imidazol-1-yl)-3′-(methylsulfonyl)biphenyl-3-yl)oxazole]
17 | 7.35 | 49 |  | Cc1nc(-c2cc(-c3cc(F)c(CO)c(S(C)(=O)=O)c3)ccc2-n2cc(C(F)(F)F)nc2C)c(-c2cc(F)cc(Cl)c2)o1 [Example 450, (3′-(5-(3-chloro-5-fluorophenyl)-2-methyloxazol-4-yl)-3-fluoro-4′-(2-methyl-4-(trifluoromethyl)-1H-imidazol-1-yl)-5-(methylsulfonyl)biphenyl-4-yl)methanol]
18 | 6.90 | 61 |  | Cc1cc(-c2oc(C)nc2-c2cc(-c3cccc(S(C)(=O)=O)c3)ccc2-n2cc(C(F)(F)F)nc2C)cc(Cl)n1 [Example 451, 5-(2-chloro-6-methylpyridin-4-yl)-2-methyl-4-(4-(2-methyl-4-(trifluoromethyl)-1H-imidazol-1-yl)-3′-(methylsulfonyl)biphenyl-3-yl)oxazole]
19 | 7.08 |  | 55 | Cc1cc(-c2oc(C)nc2-c2cc(-c3cc(F)c(CO)c(S(C)(=O)=O)c3)ccc2-n2cc(C(F)(F)F)nc2C)cc(Cl)n1 [Example 452, (3′-(5-(2-chloro-6-methylpyridin-4-yl)-2-methyloxazol-4-yl)-3-fluoro-4′-(2-methyl-4-(trifluoromethyl)-1H-imidazol-1-yl)-5-(methylsulfonyl)biphenyl-4-yl)methanol]
20 | 7.15 | 43 |  | Cc1nc(-c2cc(-c3cccc(S(C)(=O)=O)c3)ccc2-n2cc(C(F)(F)F)nc2C)c(-c2ccc(F)cc2F)o1 [Example 453, 5-(2,4-difluorophenyl)-2-methyl-4-(4-(2-methyl-4-(trifluoromethyl)-1H-imidazol-1-yl)-3′-(methylsulfonyl)biphenyl-3-yl)oxazole]
